Values of other authors, collected in publication PMC4112557 (Bioconjugate Chemistry, 2014).
Where a SMILES comes first, the peptide text is derived from it.

Target: PSMA (Homo sapiens, UniProt Q04609)
Conditions: hydrolysis of NAAG in the amplex red assay

Chain of PSMA (Q04609 whole entry): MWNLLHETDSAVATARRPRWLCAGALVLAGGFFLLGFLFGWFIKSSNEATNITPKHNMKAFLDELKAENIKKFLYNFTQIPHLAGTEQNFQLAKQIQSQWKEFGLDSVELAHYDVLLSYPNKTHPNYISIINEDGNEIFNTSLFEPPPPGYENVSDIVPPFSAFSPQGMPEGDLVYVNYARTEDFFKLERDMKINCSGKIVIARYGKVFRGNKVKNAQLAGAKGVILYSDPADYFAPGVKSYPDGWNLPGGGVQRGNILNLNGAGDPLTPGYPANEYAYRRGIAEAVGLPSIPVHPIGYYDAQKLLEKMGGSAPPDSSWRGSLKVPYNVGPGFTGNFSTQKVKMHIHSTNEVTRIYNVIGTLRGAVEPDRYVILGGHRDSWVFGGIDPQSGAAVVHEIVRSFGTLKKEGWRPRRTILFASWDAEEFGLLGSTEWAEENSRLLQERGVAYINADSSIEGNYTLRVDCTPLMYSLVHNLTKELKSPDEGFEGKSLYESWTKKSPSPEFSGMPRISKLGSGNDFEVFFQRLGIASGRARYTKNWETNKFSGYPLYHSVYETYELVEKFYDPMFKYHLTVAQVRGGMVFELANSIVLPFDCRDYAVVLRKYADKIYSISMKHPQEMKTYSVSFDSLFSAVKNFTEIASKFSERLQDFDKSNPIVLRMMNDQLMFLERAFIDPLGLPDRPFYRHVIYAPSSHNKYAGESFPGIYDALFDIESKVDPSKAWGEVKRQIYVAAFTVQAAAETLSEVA

- Km: 1.15 µM
SMILES: CC(=O)N[C@@H](CC(=O)O)C(=O)N[C@@H](CCC(=O)O)C(=O)O [NAAG, N-acetylaspartylglutamic acid] (Ac-Asp-Glu-OH)
